Experiment [1] addresses MELK (Homo sapiens, UniProt Q14680). The experiment in a line: Kinase assay: MELK activity, phosphorylation of FITC-labeled histone H3 peptide measured by IMAP fluorescence polarization. The class given is biochemical. Particulars: read-out: IC50 (μM) (kinase assay). The method, then: MELK activity was determined in the presence or absence of compounds using fluorescein isothiocyanate-labeled (FITC-labeled) histone H3 peptide as a substrate. […] Test compounds were dissolved in DMSO at 12.5 mM and then serially diluted as the DMSO concentration in the assays to be 1%. […] The reaction was stopped by the addition of three fold assay volume of progressive binding solution. Following 0.5 hour incubation at room temperature, fluorescence polarization was measured by Wallac EnVision 2103 multilabel reader (PerkinElmer).

Experiment [2] has as its system HT-1197 cells. Description: Cell-based assay: anti-proliferative activity, Cell Counting Kit-8, 72 hours (HT-1197, negative control without MELK expression). Particulars: Homo sapiens, HT1197, 72 h, 72 hours. Here is the method:
(§1) To evaluate the expression status of MELK in several cell lines, western blot analysis was performed using crude cell lysate collected from those cells. Anti-MELK antibody (clone 31, BD Biosciences) was used to visualize the expression.
(§2) Active candidate inhibitors against MELK were evaluated for their target-specific cytotoxicity using T47D, A549, BT-549, and HT-1197 cells was used for negative control. 100 micro-L of cell suspension was seeded onto 96-well microtiter plate (ViewPlate-96FTC, PerkinElmer). The initial cell concentration of T47D, A549, BT-549, and HT-1197 were 3,000 cells/well, 2,000 cells/well and 2,500 cells/well, respectively. Cellular growth was determined using Cell Counting Kit-8 (DOJINDO) at 72 hours after the exposure of the candidate inhibitors. […] Accurate IC50 values were calculated as described previously.
Background: Tetrazolium assays rely on reduction of a dye to a coloured formazan, in cell work by metabolically active cells.

The test system of experiment [3] is T47D cells. The experiment in a line: Cell-based assay: anti-proliferative activity, Cell Counting Kit-8, 72 hours (T47D). The conditions noted are these: Homo sapiens, T47D, 72 h. The method, then:
as §1, §2

Where [4] appears, read: HT1197 cells (negative control, no MELK expression).
Where [5] appears, read: HT1197 cells (negative control).
Setting [6] is: 50 micro-M ATP, FITC-labeled histone H3 peptide substrate, IMAP fluorescence polarization.
Setting [7] is: MELK kinase assay, IMAP fluorescence polarization, 50 micro-M ATP.

Molecules are shown by their SMILES. Where a name gives a salt, the structure may show the parent alone. Read-outs that look alike come from different tables or passages of the source.

Chain of MELK (Q14680 whole entry, looked up): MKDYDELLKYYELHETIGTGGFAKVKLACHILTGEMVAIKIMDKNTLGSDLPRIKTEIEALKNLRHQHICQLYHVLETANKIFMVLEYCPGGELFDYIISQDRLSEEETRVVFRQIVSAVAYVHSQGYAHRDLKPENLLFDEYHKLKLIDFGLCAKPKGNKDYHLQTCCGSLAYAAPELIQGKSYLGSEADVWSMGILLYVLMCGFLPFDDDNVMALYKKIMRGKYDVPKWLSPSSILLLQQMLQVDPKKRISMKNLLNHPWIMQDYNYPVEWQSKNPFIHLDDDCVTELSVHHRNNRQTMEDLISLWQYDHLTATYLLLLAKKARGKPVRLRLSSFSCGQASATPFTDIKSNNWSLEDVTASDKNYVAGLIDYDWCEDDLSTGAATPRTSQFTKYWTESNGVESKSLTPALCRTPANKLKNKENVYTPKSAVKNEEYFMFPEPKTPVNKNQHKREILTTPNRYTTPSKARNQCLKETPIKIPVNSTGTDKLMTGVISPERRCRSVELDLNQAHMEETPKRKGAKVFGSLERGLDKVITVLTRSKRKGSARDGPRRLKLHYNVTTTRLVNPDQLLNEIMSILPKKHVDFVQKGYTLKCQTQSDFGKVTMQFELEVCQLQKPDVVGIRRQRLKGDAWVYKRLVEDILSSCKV

On to `CN(C)CC1CCN(c2c(C(=O)C3CC3)cnc3ccc(-c4ccc(C(=O)O)cc4)cc23)CC1` [Example 492, 4-(3-(cyclopropanecarbonyl)-4-(4-((dimethylamino)methyl)piperidin-1-yl)quinolin-6-yl)benzoic acid], for which the IC50 (as a rule, the point on the concentration scale where inhibition reaches its midpoint) in experiment [1] is 1.4 µM; in experiment [2] (setting [4]), 10 µM; in experiment [3] it was 10 µM.
With `O=C(c1cnc2ccc(-c3cc(F)c(O)c(Cl)c3)cc2c1NC1CCC(N2CCC(F)(F)C2)CC1)C1CC1` (centres unmarked) [Example 675, (6-(3-chloro-5-fluoro-4-hydroxyphenyl)-4-(4-(3,3-difluoropyrrolidin-1-yl)cyclohexylamino)quinolin-3-yl)(cyclopropyl)methanone], the values for the IC50 in experiment [1], in experiment [2] (setting [4]) and in experiment [3] were 0.83 µM, 4.4 µM and 0.8 µM, respectively.
On to `COc1cc(-c2cc(F)c3ncc(C(=O)C4CC4)c(N[C@H]4CC[C@H](N)CC4)c3c2)cc(Cl)c1O` [Example 564], for which the values for the IC50 in experiment [1], in experiment [2] (setting [5]) and in experiment [3] were 0.26 µM, 1.8 µM and 0.43 µM, respectively.
For `COC(=O)c1ccc(-c2ccc3ncc(C(=O)C4CC4)c(N4CCC(CN(C)C)CC4)c3c2)cc1` [Example 481, methyl 4-(3-(cyclopropanecarbonyl)-4-(4-((dimethylamino)methyl)piperidin-1-yl)quinolin-6-yl)benzoate], the concentration for half-maximal inhibition (IC50) worked out at 1.4 µM in experiment [1], 10 µM in experiment [2] (setting [4]) and 10 µM in experiment [3].
For the compound `COc1cc(-c2ccc3ncc(C(=O)C4CC4)c(NCC(=O)N4CCN(C)CC4)c3c2)cc(Cl)c1O` [Example 395, 2-(6-(3-chloro-4-hydroxy-5-methoxyphenyl)-3-(cyclopropanecarbonyl)quinolin-4-ylamino)-1-(4-methylpiperazin-1-yl)ethanone], the IC50 came out at 1 µM in experiment [1] (setting [6]), 10 µM in experiment [2] (setting [4]) and 10 µM in experiment [3].
`COc1cc(-c2ccc3ncc(C(=O)C4CC4)c(-c4cn[nH]c4)c3c2)cc(Cl)c1O` [Example 536, (6-(3-chloro-4-hydroxy-5-methoxyphenyl)-4-(1H-pyrazol-4-yl)quinolin-3-yl)(cyclopropyl)methanone]: the IC50 came out at 0.11 µM in experiment [1], 14 µM in experiment [2] (setting [5]) and 1.3 µM in experiment [3].
For `CN(C)Cc1ccc(Nc2c(C(=O)C3CC3)cnc3c(F)cc(-c4cc(Cl)c(O)c(Cl)c4)cc23)cc1` [Example 552, cyclopropyl(6-(3,5-dichloro-4-hydroxyphenyl)-4-(4-((dimethylamino)methyl)phenylamino)-8-fluoroquinolin-3-yl)methanone], in that order: 0.58 µM, 9 µM and 1.1 µM.
For `COc1cc(-c2cc(F)c3ncc(C(=O)C4CC4)c(Nc4ccc(CN(C)C)cc4)c3c2)cc(Cl)c1O` [Example 551, (6-(3-chloro-4-hydroxy-5-methoxyphenyl)-4-(4-((dimethylamino)methyl)phenylamino)-8-fluoroquinolin-3-yl)(cyclopropyl)methanone], in that order: 1.1 µM, 6.9 µM and 2 µM.
Turning to `CN(C)CC1CCN(c2c(C(=O)C3CC3)cnc3ccc(-c4ccc(OC(F)F)cc4)cc23)CC1` [Example 458], the values for the IC50 in experiment [2] (setting [4]) and in experiment [3] were 8.4 µM and 7.2 µM, respectively.
Turning to `N[C@H]1CC[C@H](Nc2c(C(=O)C3CC3)cnc3c(F)cc(-c4cc(F)c(O)c(Cl)c4)cc23)CC1` [Example 555], the values for the IC50 in experiment [1], in experiment [2] (setting [5]) and in experiment [3] were 5.1 µM, 10 µM and 0.44 µM, respectively.
As for `CN(C)CC1CCN(c2c(C(=O)C3CC3)cnc3ccc(-c4ccc(C(F)F)cc4)cc23)CC1` [Example 465], the IC50 in experiment [1] (setting [6]) stood at 0.91 µM; in experiment [2] (setting [4]) it was 5.6 µM; in experiment [3], 8.6 µM.
As for `O=C(c1cnc2ccc(-c3cc(Cl)c(O)c(Cl)c3)cc2c1Nc1ccc(CN2CCC(F)(F)C2)cc1)C1CC1` [Example 581, cyclopropyl(6-(3,5-dichloro-4-hydroxyphenyl)-4-(4-((3,3-difluoropyrrolidin-1-yl)methyl)phenylamino)quinolin-3-yl)methanone], the IC50 in experiment [1] stood at 0.63 µM; in experiment [2] (setting [5]), 5.3 µM; in experiment [3] it was 1.4 µM.
As to `CN(C)CC1CCN(c2c(C(=O)C3CC3)cnc3ccc(-c4ccc5c(c4)CC(=O)N5)cc23)CC1` [Example 474], the IC50 in experiment [2] (setting [4]) and in experiment [3] was 10 µM each time.
For `N[C@H]1CC[C@H](Nc2c(C(=O)C3CC3)cnc3ccc(-c4cc(F)c(O)c(Cl)c4)cc23)CC1` [Example 936, (4-((1R,4R)-4-aminocyclohexylamino)-6-(3-chloro-5-fluoro-4-hydroxyphenyl)quinolin-3-yl)(cyclopropyl)methanone, hydrochloride], in experiment [1] (setting [7]), the IC50 came out at 0.0019 µM.
Same read-out and setting: under `CC(=O)c1cnc2cc(C)c(-c3cc(Cl)c(O)c(Cl)c3)cc2c1Nc1ccc(CN(C)C)cc1` [Example 847, 1-(6-(3,5-dichloro-4-hydroxyphenyl)-4-(4-((dimethylamino)methyl)phenyl-amino)-7-methylquinolin-3-yl) ethanone hydrochloride] stands 0.55 µM.
`COc1cc(-c2ccc3ncc(C(=O)C4CC4)c(NC4CCC(N5CCC(F)(F)C5)CC4)c3c2)cc(Cl)c1O` (centres unmarked) [Example 676, (6-(3-chloro-4-hydroxy-5-methoxyphenyl)-4-(4-(3,3-difluoropyrrolidin-1-yl)cyclohexylamino)quinolin-3-yl)(cyclopropyl)methanone]: the IC50 in experiment [1] worked out at 0.29 µM; in experiment [2] (setting [4]) it was 11 µM; in experiment [3], 1 µM.
As to `CC(=O)c1cnc2ccc(-c3ccc(-c4ccc(O)cc4)cc3)cc2c1Nc1cccc(CCN2CCCC2)c1` [Example 888, 1-(6-(4′-hydroxy-[1,1′-biphenyl]-4-yl)-4-((3-(2-(pyrrolidin-1-yl)ethyl)phenyl)amino)quinolin-3-yl) ethanone hydrochloride], the half-maximal inhibitory concentration (IC50) in experiment [1] (setting [7]) was found to be 3.4 µM.
Consider `CCCC(=O)c1cnc2ccc(-c3cc(Cl)c(O)c(Cl)c3)cc2c1Nc1ccc(N2CCNCC2)nc1` [Example 625, 1-(6-(3,5-dichloro-4-hydroxyphenyl)-4-(6-(piperazin-1-yl)pyridin-3-ylamino)quinolin-3-yl)butan-1-one], for which the results for the IC50 in experiment [1], in experiment [2] (setting [5]) and in experiment [3] were 0.15 µM, 10 µM and 1.5 µM, respectively.
For `CN(C)Cc1ccc(Nc2c(C(=O)C3CC3)cnc3c(F)cc(-c4cc(F)c(O)c(Cl)c4)cc23)cc1` [Example 563, (6-(3-chloro-5-fluoro-4-hydroxyphenyl)-4-(4-((dimethylamino)methyl)phenylamino)-8-fluoroquinolin-3-yl)(cyclopropyl)methanone], in that order: 1.8 µM, 3.3 µM and 1.3 µM.
Regarding `CN[C@H]1CC[C@H](Nc2c(C(C)=O)cnc3ccc(-c4cc(F)c(O)c(Cl)c4)cc23)CC1` [Example 560], the values for the IC50 in experiment [1], in experiment [2] (setting [5]) and in experiment [3] were 0.11 µM, 10 µM and 0.041 µM, respectively.
Regarding `CN(C)C[C@H]1CC[C@H](Nc2c(C(=O)C3CC3)cnc3cc(C(F)(F)F)c(-c4cc(Cl)c(O)c(Cl)c4)cc23)CC1` [Example 842], in experiment [1] (setting [7]), the IC50 amounted to 0.93 µM.
Take `N[C@H]1CC[C@H](Nc2c(C(=O)C3CC3)cnc3c(F)cc(-c4cc(Cl)c(O)c(Cl)c4)cc23)CC1` [Example 565]: the IC50 in experiment [1] amounted to 2.1 µM; in experiment [2] (setting [5]), 10 µM; in experiment [3] it was 0.3 µM.
In the case of `CN1CCN(c2ccc(Nc3c(C(=O)C4CC4)cnc4cc(C(F)(F)F)c(-c5cc(Cl)c(O)c(Cl)c5)cc34)cn2)CC1` [Example 839, cyclopropyl(6-(3,5-dichloro-4-hydroxy-phenyl)-4-(6-(4-methylpiperazin-1-yl)pyridin-3-ylamino)-7-(trifluoro-methyl)quinolin-3-yl)methanone], the IC50 in experiment [1] (setting [7]) came to 4.2 µM.
On to `CN(CCO)C[C@H]1CC[C@H](Nc2c(C(=O)C3CC3)cnc3ccc(-c4cc(Cl)c(O)c(Cl)c4)cc23)CC1` [Example 635, cyclopropyl(6-(3,5-dichloro-4-hydroxyphenyl)-4-(1R,4R)-4-(((2-hydroxyethyl)(methyl)amino)methyl)cyclohexylamino)quinolin-3-yl)methanone hydrochloride], for which, in experiment [1] (hydrochloride), the IC50 came to 0.00074 µM.
In the case of `O=C(c1cnc2ccc(-c3cc(Cl)c(O)c(Cl)c3)cc2c1NC1CCC(N2CCC(F)(F)C2)CC1)C1CC1` (centres unmarked) [Example 664, cyclopropyl(6-(3,5-dichloro-4-hydroxyphenyl)-4-(4-(3,3-difluoropyrrolidin-1-yl)cyclohexylamino)quinolin-3-yl)methanone], the IC50 was determined as 0.14 µM in experiment [1], 10 µM in experiment [2] (setting [4]) and 1.7 µM in experiment [3].
Take `CC(=O)c1cnc2ccc(-c3cc(Cl)c(O)c(Cl)c3)cc2c1Nc1ccc(CN(C)C)cc1` [Example 374]: the IC50 in experiment [1] (setting [7]) was found to be 0.0066 µM.

The values above are taken from patent US9120749B2, “Quinoline derivatives and MELK inhibitors containing the same” (ONCOTHERAPY SCIENCE, INC., priority 2010, dated 2015).
